Source: patent US8318812B2, “Therapeutic agents for the treatment of lymphoid malignancies” (The Ohio State University Research Foundation, priority 2006, dated 2012)

How the values were obtained:
Raji cells = test: Raji disseminated lymphoma/leukemia SCID mouse xenograft model; type: in vivo, SCID mice
Procedure: In vivo therapeutic efficacy evaluation in a xenograft model: The in-vivo evaluation of FTY720 was carried out using the disseminated lymphoma bearing SCID mouse xenograft model. This model was generated using human Raji B cell line injected into SCID mice as previously described. Raji cells were cultured in RPMI1640+10% FBS. Confluent cultures with >95% viability were confirmed to express human CD19 by flow cytometry. […] female 6-8 week-old C.B.-17 SCID mice (Taconic Farm, Germantown, N.Y.) were injected with 2×10^6 cells intravenously (i.v) in 200 ul sterile PBS via the tail vein. Seventy two hours post inoculation, the animals were divided into 4 equal treatment groups. […] All the animals were monitored daily for signs of illness and sacrificed immediately if hind limb paralysis, respiratory distress or 30% body weight loss was noted. Body weight was measured once every week. […] The presences of the CD19^+ cells were evaluated in the bone marrow of these mice by flow cytometry. […]

primary MCL cells = test: Annexin V/PI toxicity in primary MCL cells; type: cell-based; conditions: Homo sapiens, WinNolin sigmoid inhibitory model
Procedure: (§1) Primary MCL cells were isolated from PBMC (with informed patient consent under a protocol approved by IRB) as described before. All the MCL patients were identified as outlined by the World Health Organization (WHO) classification. Human mantle cell lymphoma patient cell lines (Mino and Jeko) were obtained from Dr. Raymond Lai. Primary cells or MCL cell lines were incubated in RPMI 1640 media, supplemented with 10%-20% heat-inactivated fetal bovine serum, 2 mM L-glutamine and penicillin (100 U/mL)/streptomycin ([…]) at 37° C. in an atmosphere of 5% CO2. FTY720 was synthesized as previously described. Toxicity was determined by flow cytometry using Annexin-V-FITC and Propidium Iodide (PI) staining. Apoptotic cells were identified as Annexin-V+ and/or PI+ cells. Cells excluding both FITC and PI were considered viable. Western Blotting was performed as described previously using indicated antibodies. The PARP (Ab-2) and Caspase 9 antibodies were purchased from Oncogene/Calbiochem/EMD Biosciences (San Diego, Calif.). Cyclin D1, Akt, Actin, Mcl-1, p-ERK, ERK and Bcl-2 were obtained from Santa Cruz biotech (Santa Cruz, Calif.).
(§2) Several therapeutic agents, including fludarabine, chlorambucil, 2-chloro-2-deoxyadenosine and glucocorticoids, induce toxicity in B cell malignancies through activating caspases, the cysteine proteases of CED3/ICE family. […]

Jeko cells = test: Annexin V/PI toxicity in Jeko cells; type: cell-based; conditions: Homo sapiens, WinNolin sigmoid inhibitory model
Procedure: as §1, §2

CCCCCCCCc1ccc(CCC(N)(CO)CO)cc1.Cl [FTY720, 2-Amino-2-[2-(4-octylphenyl)ethyl]propane 1,3-diol hydrochloride]
median survival time (Raji cells; FTY720 5 mg/kg every day for 2 weeks i.p., 95% CI 39-53): 47 days
mice surviving without signs of disease (Raji cells; after a follow-up period of 200 days): 4 of the 12
IC50 (primary MCL cells): 10.7 µM
IC50 (Jeko cells): 4.46 µM
